# Reference: patent publication US20230286973A1, “PROTEIN SECRETION INHIBITORS” (KEZAR LIFE SCIENCES, priority 2020, published 2023)
# Several values for one entry are separate records, joined by “and”; a condition that tells them apart may be missing. Equal entries are not always repeated.
# Tests used:
# [1] = system: PD1-ss+10aa/Gaussia Luciferase; assay: Dox-Induced PD1-ss-Gluc Assay; assay type: cell-based; conditions: 24 hr Dox induction; 293FRT/TO cells; read-out: 24 hr Dox Inducible PD1ssGluc 293FRT/TO: Mean IC50
# Summary of the method: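 Compounds were added in DMSO/media with doxycycline and incubated at 37 °C, 5% CO2, on 293 T-REx cells plated one day earlier. These cells stably express, under tetracycline-regulated control, a Gaussia luciferase fused to the PD1 signal peptide plus 10 residues. Structures drawn without stereochemistry were tested as stereoisomer mixtures.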
# [2] = system: TNFα-FL/Gaussia Luciferase; assay: Dox Induced TNFα-FL-Gluc Assay; assay type: cell-based; conditions: for IC50: 24 hr Dox induction, 293FRT/TO cells, read-out: 24 hr Dox Inducible TNFaFLGluc 293FRT/TO: Mean IC50; for 24 hr Dox Inducible TNFaFLGluc 293FRT/TO: TNF/PD1: ratio of TNFaFLGluc IC50 to PD1ssGluc IC50
# Summary of the method: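 Cells are seeded one day ahead, then treated with compound plus doxycycline at 37 °C, 5% CO2. The stable Flp-In 293 T-REx line expresses full-length TNFα (amino acids 1-233) with Gaussia luciferase fused to its 3′ end, inducibly via T-REx.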
# [3] = system: HER3-ss+4aa/Gaussia Luciferase; assay: Dox-Induced Her3-ss-Gluc Assay; assay type: cell-based; conditions: 24 hr Dox induction; 293FRT/TO cells; read-out: 24 hr Dox Inducible Her3(ss + 4)Gluc 293FRT/TO: Mean IC50
# Summary of the method: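 Expression of a Gaussia luciferase reporter carrying the HER3 signal sequence plus 4 amino acids is induced by doxycycline in stably transfected Flp-In 293 T-REx cells. Compounds are added with doxycycline at 37° C., 5% CO2. Undefined stereocentres denote stereoisomer mixtures.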
# [4] = system: IL-2-FL/Gaussia Luciferase; assay: Dox Induced IL2-FL-Gluc Assay; assay type: cell-based; conditions: for IC50: 24 hr Dox induction, 293FRT/TO cells, read-out: 24 hr Dox Inducible IL2FLGluc 293FRT/TO: Mean IC50; for 24 hr Dox Inducible IL2FLGluc 293FRT/TO: IL2/PD1: ratio of IL2FLGluc IC50 to PD1ssGluc IC50
# Summary of the method: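 Reporter is Gaussia luciferase fused to the 3′ end of full-length IL-2 (aa 1-153), expressed from a doxycycline-inducible T-REx construct in stably selected Flp-In 293 cells. Compounds were co-added with doxycycline and incubated at 37° C, 5% CO2.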
# [5] = system: multiple myeloma cell line NCI-H929; assay: H929 Cell Viability Assay; assay type: cell-based, human; conditions: NCI-H929 cells, Celltiter-Glo
# Summary of the method: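 Plate the myeloma cells in RPMI 1640 with 10% FBS, add serially diluted compound, incubate for 48 hours at 37° C, then add CellTiter-Glo and read luciferase signal.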
# [6] = system: multiple myeloma cell line U266B1; assay: U266 Cell Viability Assay; assay type: cell-based, human; conditions: U266B1 cells, Celltiter-Glo
# Summary of the method: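 48 h treatment, 37° C./5% CO2, RPMI 1640 + 10% FBS; viability by CellTiter-Glo luminescence.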
# [7] = Liver Microsome Stability Assay (rat); conditions: rat liver microsomes, with NADPH, 1.0 uM compound
# Experimental: (§1) Stability of a compound was assessed in the presence of liver microsomes from various sources—mouse, rat, monkey and human liver microsomes. 1.0 uM compound, 0.4% DMSO in 0.1 M Potassium Phosphate with 1.0 mg/mL liver microsomes, were incubated at 37° C. with or without 1 mM NADPH. The samples were quenched at 0, and 30 minutes.
# [8] = Liver Microsome Stability Assay (mouse); conditions: mouse liver microsomes, with NADPH, 1.0 uM compound
# Experimental: as §1
# [9] = Liver Microsome Stability Assay (human); conditions: human liver microsomes, with NADPH, 1.0 uM compound
# Experimental: as §1
# [10] = Liver Microsome Stability Assay (monkey); conditions: monkey liver microsomes, with NADPH, 1.0 uM compound
# Experimental: as §1
SMILES,IC50 [1],IC50 [2],IC50 [3],IC50 [4],"EC50 ([5]; Homo sapiens, NCI-H929, 48 h) [nM]","EC50 ([6]; Homo sapiens, U-266, 48 h) [nM]",Liver Microsome Stability (Multiple Species): Rat - % Remaining after 30 min w/NADPH [7],Liver Microsome Stability (Multiple Species): Mouse - % Remaining after 30 min w/NADPH [8],Liver Microsome Stability (Multiple Species): Human - % Remaining after 30 min w/NADPH [9],Liver Microsome Stability (Multiple Species): Monkey - % Remaining after 30 min w/NADPH [10],EC50 ([5]; 48 hr),EC50 ([6]; 48 hr) [nM],24 hr Dox Inducible TNFaFLGluc 293FRT/TO: TNF/PD1 [2],24 hr Dox Inducible IL2FLGluc 293FRT/TO: IL2/PD1 [4]
"CNCc1ccc(N2CCC[C@@H]2c2csc(NC(=O)c3cccn3Cc3ccncc3)n2)cc1 [Compound A49, (R)-N-(4-(1-(4-((methylamino)methyl)phenyl)pyrrolidin-2-yl)thiazol-2-yl)-1-(pyridin-4-ylmethyl)-1H-pyrrole-2-carboxamide]",778 nM,> 25000 nM,1640 nM,2220 nM,9860,8120,10.7%,29.4%,1.94%,0.94%,–,–,>32.1,2.8
"O=C(Nc1nc([C@H]2CCCN2c2ccc(C3CCNCC3)cc2)cs1)c1cccn1Cc1ccncc1 [Compound A51, (R)-N-(4-(1-(4-(piperidin-4-yl)phenyl)pyrrolidin-2-yl)thiazol-2-yl)-1-(pyridin-4-ylmethyl)-1H-pyrrole-2-carboxamide]",529 nM,19300 nM,917 nM,1040 nM,4950,6060,0.4%,64.3%,2.67%,1.91%,–,–,36.5,2
"Cc1cc(Cn2cccc2C(=O)Nc2nc([C@H]3CCCN3c3ccccc3)cs2)ccn1 [Compound A52, (R)-1-((2-methylpyridin-4-yl)methyl)-N-(4-(1-phenylpyrrolidin-2-yl)thiazol-2-yl)-1H-pyrrole-2-carboxamide]",340 nM,4050 nM,450 nM,912 nM,20600,> 25000,0.63%,3.47%,1.11%,0.33%,–,–,11.9,2.7
"Cc1cnccc1Cn1cccc1C(=O)Nc1nc([C@H]2CCCN2c2ccccc2)cs1 [Compound A53, (R)-1-((3-methylpyridin-4-yl)methyl)-N-(4-(1-phenylpyrrolidin-2-yl)thiazol-2-yl)-1H-pyrrole-2-carboxamide]",23.7 nM,301 nM,31.5 nM,54.3 nM,20600,> 25000,0.63%,3.47%,1.11%,0.33%,–,–,12.7,2.3
"O=C(Nc1nc([C@H]2CCCN2c2ccc(C(F)(F)F)cc2)cs1)c1cccn1Cc1ccnc(F)c1 [Compound A56, (R)-1-((2-fluoropyridin-4-yl)methyl)-N-(4-(1-(4-(trifluoromethyl)phenyl)pyrrolidin-2-yl)thiazol-2-yl)-1H-pyrrole-2-carboxamide]",5.8 nM and 4.66 nM and 4.85 nM,111 nM and 63.2 nM and 96.9 nM,9.54 nM and 8.51 nM and 7.39 nM,10.4 nM and 6.77 nM and 8.74 nM,152,> 25000,48.3% and 54.8%,81.1% and 81.8%,43.9% and 46%,27.3% and 25.8%,149 nM and 165 nM,> 24800,19.1 and 13.6 and 20,1.8 and 1.5
"O=C(Nc1nc([C@H]2CCCN2c2ccc(CO)cc2)cs1)c1cccn1Cc1ccncc1 [Compound A57, (R)-N-(4-(1-(4-(hydroxymethyl)phenyl)pyrrolidin-2-yl)thiazol-2-yl)-1-(pyridin-4-ylmethyl)-1H-pyrrole-2-carboxamide]",17.7 nM,287 nM,38.3 nM,45.1 nM,500,> 25000,6.28%,6.1%,26.6%,49.5%,–,–,16.2,2.5

# Continued, in another order:
IC50 [1],IC50 [2],IC50 [3],IC50 [4],"EC50 ([5]; Homo sapiens, NCI-H929, 48 h) [nM]","EC50 ([6]; Homo sapiens, U-266, 48 h) [nM]",Liver Microsome Stability (Multiple Species): Rat - % Remaining after 30 min w/NADPH [7],Liver Microsome Stability (Multiple Species): Mouse - % Remaining after 30 min w/NADPH [8],Liver Microsome Stability (Multiple Species): Human - % Remaining after 30 min w/NADPH [9],Liver Microsome Stability (Multiple Species): Monkey - % Remaining after 30 min w/NADPH [10],EC50 ([5]; 48 hr),EC50 ([6]; 48 hr) [nM],SMILES,24 hr Dox Inducible TNFaFLGluc 293FRT/TO: TNF/PD1 [2],24 hr Dox Inducible IL2FLGluc 293FRT/TO: IL2/PD1 [4]
19.5 nM,426 nM,41.4 nM,58.1 nM,682,> 25000,0.11%,18.3%,0.34%,0.1%,–,–,"CC(=O)N1CCC(c2ccc(N3CCC[C@@H]3c3csc(NC(=O)c4cccn4Cc4ccncc4)n3)cc2)CC1 [Compound A55, (R)-N-(4-(1-(4-(1-acetylpiperidin-4-yl)phenyl)pyrrolidin-2-yl)thiazol-2-yl)-1-(pyridin-4-ylmethyl)-1H-pyrrole-2-carboxamide]",21.8,3
108 nM,1880 nM,249 nM,296 nM,3340,9990,4.13%,0.24%,0.4%,0.29%,–,–,"CC(=O)N1CCCCC1c1ccc(N2CCC[C@@H]2c2csc(NC(=O)c3cccn3Cc3ccncc3)n2)cc1 (stereo partly drawn) [Compound A58, N-(4-((2R)-1-(4-(1-acetylpiperidin-2-yl)phenyl)pyrrolidin-2-yl)thiazol-2-yl)-1-(pyridin-4-ylmethyl)-1H-pyrrole-2-carboxamide]",17.4,2.7
2180 nM,22500 nM,5060 nM,6960 nM,16000,6490,21.3%,49.8%,0.62%,2.29%,–,–,"O=C(Nc1nc([C@H]2CCCN2c2ccc(C3CCCCN3)cc2)cs1)c1cccn1Cc1ccncc1 (stereo partly drawn) [Compound A59, N-(4-((2R)-1-(4-(piperidin-2-yl)phenyl)pyrrolidin-2-yl)thiazol-2-yl)-1-(pyridin-4-ylmethyl)-1H-pyrrole-2-carboxamide]",10.3,3.2
